From patent EP1142584A1, “COMPOSITIONS FOR TREATING FREQUENT URINATION AND URINARY INCONTINENCE” (Takeda Chemical Industries, Ltd., priority 1999, dated 2000) come the findings set out here.

What all share (format): in vivo
In assay [1] the test system is rhythmic bladder contractions in urethane-anesthetized guinea pig. The assay can be described thus: Rhythmic bladder contractions in urethane-anesthetized guinea pig (Test Example 1). The following applies: mean ± standard error, maximum observation period 30 minutes. The protocol:
The urinary frequency and urinary incontinence suppressing activity of NO-711 hydrochloride was evaluated by the ability to increase an interval between rhythmic bladder contractions in urethane-anesthetized guinea pig as an index. In this model, an urethra was ligated, a constant volume of a physiological saline (3 to 4.5 ml) warmed at 39°C was injected into the bladder to distend, and the regular rhythmic bladder contractions at a constant interval were observed. After the stable rhythmic bladder contractions were confirmed, a compound dissolved in physiological saline was administered intravenously to investigate the activity. Immediately after administration of a drug, the time of complete suppression of the rhythmic bladder contractions (rhythmic bladder contraction shutdown time, maximum observation period was 30 minutes) was measured. Table 1 A drug was administered intravenously. *P<0.05, **P<0.01 (significance to the physiological saline-administered control group, nonparametric Dunnett multiple comparison test, two-tailed test)

The test system of assay [2] is rhythmic bladder contractions in urethane-anesthetized rats. The assay is described as follows: Rhythmic bladder contractions in urethane-anesthetized rats (Test Example 2). The following applies: mean ± standard error; for Reflex shutdown time: maximum observation period 30 minutes. Here is the method:
The urinary frequency and urinary incontinence suppressing activity of a GABA uptake inhibitor was measured as the ability to abolish the rhythmic bladder contractions in urethane-anesthetized rats as an index. An urethra was ligated, a constant volume of physiological saline warmed at 39°C was injected into the bladder to distend the detrusor muscle, and the regular rhythmic bladder contractions at a constant interval were observed. After the stable bladder contractions were confirmed, a compound was administered intravenously to investigate the activities. A time for completely suppressing the rhythmic bladder contractions after the drug administration (reflex shutdown time, a maximum observation period was 30 minutes) and a maximum contractile intravesical pressure at which the bladder contraction appeared again after the administration was measured. […] Table 2 Tiagabin hydrochloride was dissolved in distilled water, other drugs were dissolved in physiological saline, and the drugs were administered intravenously, respectively. Data are shown as mean ± standard error. *P<0.05, **P<0.01 (significance relative to the vehicle-administered control group, nonparametric Dunnett multiple comparison test, two-tailed test) ^#P<0.05 (significance to the values obtained before drug administration, paired t test, two-tailed test). A maximum contractile pressure was calculated from animals from which the bladder constriction was obtained in an observation period.

Assay [3] deals with bladder capacity in urethane-anesthetized rats. The assay is described as follows: Bladder capacity (cystometry) in urethane-anesthetized rats (Test Example 3). The following applies: mean ± standard error. Here is the method: The urinary frequency and urinary incontinence suppressing activity of a GABA uptake inhibitor was shown by the ability to increase bladder capacity in urethane-anesthetized rats. After a bladder was made empty by drawing out the urine, physiological saline warmed at 39°C was injected into the bladder at a constant rate (0.05 ml/min.) to induce micturition. These procedures were repeated to confirm stable bladder capacity (volume of physiological saline injected until start of micturition) and, thereafter, compounds were administered intravenously to investigate the activities. A change in bladder capacity and micturition pressure after the administration was measured. […] Table 3 Tiagabin hydrochloride was dissolved in distilled water, other drugs were dissolved in physiological saline and the drugs were administered intravenously, respectively. Data are shown as the mean ± standard error. After drug administration, animals showing an overflow urinary incontinence-like cystometrogram (urine leakage without the bladder constriction) were excluded from calculation of micturition pressure. *P<0.05, **P<0.01 (significance to the values obtained before drug administration, paired t test, two-tailed test)

Counter-ions that a name gives are not always drawn. Marks after values point to notes of the source that are not given here.

Regarding `O=C(O)C1=CCCN(CCON=C(c2ccccc2)c2ccccc2)C1` [NO-711 hydrochloride], the “Rhythmic bladder contraction shutdown time” value in assay [1] (1 mg/kg intravenously) is 5.9 ± 1.3 min; in assay [1] (3 mg/kg intravenously) it was 18.4±5.0* minutes; in assay [1] (10 mg/kg intravenously), 16.9±3.6** minutes. The “Change in maximum contractile intravesical pressure (Relative to before administration, %)” value in assay [2] (0.3 mg/kg intravenously) was -3.3±3.2%; in assay [2] (1 mg/kg intravenously), -19.7±5.6* %; in assay [2] (3 mg/kg intravenously) it was -8.4±5.8%. For the same compound, the Reflex shutdown time in assay [2] (0.3 mg/kg intravenously) was 3.8 ± 1.1 min; in assay [2] (1 mg/kg intravenously), 11.4±2.9** min; in assay [2] (3 mg/kg intravenously), 12.1±2.5** min. Further, the “Change in bladder capacity (Relative to before administration, %)” value is -8.4±11.3% in assay [3] (0.3 mg/kg intravenously), 180.9±76.8* % in assay [3] (1 mg/kg intravenously) and 188.7±45.3** % in assay [3] (3 mg/kg intravenously). The results for the “Change in micturition pressure (Relative to before administration, %)” value in assay [3] (0.3 mg/kg intravenously), in assay [3] (1 mg/kg intravenously) and in assay [3] (3 mg/kg intravenously) were -18.1±10.5%, 16.4±8.2% and 14.6±18.2%, respectively.
